# From patent publication EP2465581B1, “Non-therapeutic use of a composition for promoting hair growth” (Energenesis Biomedical Co., Ltd., priority 2010, dated 2012)
# Tested on: human dermal papilla cells
# Assay: Human dermal papilla cell proliferation test
# Type: cell-based
# Details: 0.002% in culture media; cell count at 12-60 hour; FIG. 1; result in words
# Method: The promotion of cell proliferation by adenine was evaluated using human dermal papilla cells, compared with adenosine, and minoxidil under the following conditions, the results are shown in FIG. 1. Determination of the proliferation of human dermal papilla cells in the culture media containing adenine, adenosine, and minoxidil. Supplements: 0.002% of adenine, adenosine, minoxidil. • (1) Prepare 0.002% adenine, adenosine, minoxidil containing testing media using the hair follicle dermal papilla cell media (cat. No. 611-500, Cell applications, Inc) . • (2) Seed the isolated human dermal papilla cells in 96-well culture plate with a density of 5,000 cells per well. Add 0.1 mL prepared culture media into individual well. • (3) At 12, 24, 36, 48 and 60 hour after cell seeding, visually count the total cell number using hemacytometer. • (4) Evaluate the result.
structure (smiles),measurement,value
Nc1ncnc2nc[nH]c12 [adenine],proliferation of human dermal papilla cells,promotes the proliferation
